The text below walks through data of patent US20140356325A1, “NOVEL 2'-C-METHYL NUCLEOSIDE DERIVATIVE COMPOUNDS” (Ligand Pharmaceuticals Incorporated, priority 2012, published 2014).

Where a name gives a salt, the structure may show the parent alone.

For orientation: melting point means the temperature of the solid-liquid transition. For `C[C@@]12OC(=O)O[C@@H]1[C@@H](CO[P@@]1(=O)OCC[C@@H](c3cc(F)cc(F)c3)O1)O[C@H]2n1cnc2c(O)nc(N)nc21` [Compound 101, 2(R)-(2-Amino-6-hydroxy-9(H)-purinyl)-4(R)-(4(S)-(3,5-difluorophenyl)-2-oxo-1,3,2-dioxaphosphorinan-2-(R)-yloxymethyl)-1(R)-methyl-7-oxo-3,6,8-trioxa-cis-bicyclo[3.3.0]octane], the melting point lay in the range of 234 to 236 °C.

As for `C[C@@]12OC(=O)O[C@@H]1[C@@H](CO[P@@]1(=O)OCC[C@@H](c3cccc(Cl)c3)O1)O[C@H]2n1cnc2c(OCC3CCOCC3)nc(N)nc21` [Compound 129, 2(R)-(2-Amino-6-(4-tetrahydropyranylmethoxy)-9(H)-purinyl)-4(R)-(4(S)-(3-chlorophenyl)-2-oxo-1,3,2-dioxaphosphorinan-2(R)-yloxymethyl)-1(R)-methyl-7-oxo-3,6,8-trioxa-cis-bicyclo[3.3.0]octane], the melting point was 105 to 108 °C.

`CCOc1nc(N)nc2c1ncn2[C@@H]1O[C@H](CO[P@@]2(=O)OCC[C@@H](c3cccc(Br)c3)O2)[C@H]2OC(=O)O[C@]21C` [Compound 123, 2(R)-(2-Amino-6-ethoxy-9(H)-purinyl)-4(R)-(4(S)-(3-bromophenyl)-2-oxo-1,3,2-dioxaphosphorinan-2(R)-yloxymethyl)-1(R)-methyl-7-oxo-3,6,8-trioxa-cis-bicyclo[3.3.0]octane] showed a melting point of 77 to 80 °C.

The molecule `CCOc1nc(N)nc2c1ncn2[C@@H]1O[C@H](CO[P@@]2(=O)OCC[C@@H](c3cccc(Cl)c3)O2)[C@@H](OC(=O)[C@@H](N)C(C)C)[C@@]1(C)O` (as salt: trifluoroacetate) [Compound 184, 2(R)-(2-Amino-6-ethoxy-9(H)-purinyl)-5(R)-(4(S)-(3-chlorophenyl)-2-oxo-1,3,2-dioxaphosphorinan-2(R)-yloxymethyl)-3(R)-hydroxy-3(R)-methyl-4(R)-L-valinyl-tetrahydrofuran] came in with a melting point of 128 to 130 °C.

As for `CCOC(COc1nc(N)nc2c1ncn2[C@@H]1O[C@H](CO[P@@]2(=O)OCC[C@@H](c3cccc(Cl)c3)O2)[C@H]2OC(=O)O[C@]21C)OCC` [Compound 149, 2(R)-(2-Amino-6-(2,2-diethoxyethoxy)-9(H)-purinyl)-4(R)-(4(S)-(3-chlorophenyl)-2-oxo-1,3,2-dioxaphosphorinan-2(R)-yloxymethyl)-1(R)-methyl-7-oxo-3,6,8-trioxa-cis-bicyclo[3.3.0]octane], the melting point lay within 72 to 75 °C.

For the molecule `CCOc1nc(N)nc2c1ncn2[C@@H]1O[C@H](CO[P@@]2(=O)OCC[C@@H](c3ccccc3)O2)[C@H]2OC(=O)O[C@]21C` [Compound 182, 2(R)-(2-Amino-6-ethoxy-9(H)-purinyl)-4(R)-(4(S)-phenyl-2-oxo-1,3,2-dioxaphosphorinan-2(R)-yloxymethyl)-1(R)-methyl-7-oxo-3,6,8-trioxa-cis-bicyclo[3.3.0]octane], the melting point fell in the range of 105 to 107 °C.

The molecule `C[C@@]12OC(=O)O[C@@H]1[C@@H](CO[P@@]1(=O)OCC[C@@H](c3cccc(Cl)c3)O1)O[C@H]2n1cnc2c(OCCC3CCCCC3)nc(N)nc21` [Compound 131, 2(R)-(2-Amino-6-(2-cyclohexylethoxy)-9(H)-purinyl)-4(R)-(4(S)-(3-chlorophenyl)-2-oxo-1,3,2-dioxaphosphorinan-2(R)-yloxymethyl)-1(R)-methyl-7-oxo-3,6,8-trioxa-cis-bicyclo[3.3.0]octane] had a melting point of 93 to 95 °C.

`C[C@@]12OC(=O)O[C@@H]1[C@@H](CO[P@@]1(=O)OCC[C@@H](c3cccc(Cl)c3)O1)O[C@H]2n1cnc2c(OC3CCCC3)nc(N)nc21` [Compound 125, 2(R)-(2-Amino-6-cyclopentyloxy-9(H)-purinyl)-4(R)-(4(S)-(3-chlorophenyl)-2-oxo-1,3,2-dioxaphosphorinan-2(R)-yloxymethyl)-1(R)-methyl-7-oxo-3,6,8-trioxa-cis-bicyclo[3.3.0]octane] came in with a melting point of 107 to 109 °C.

For `COc1nc(N)nc2c1ncn2[C@@H]1O[C@H](CO[P@@]2(=O)OCC[C@@H](c3cccc(Cl)c3)O2)[C@H]2OC(=O)O[C@]21C` [Compound 119, 2(R)-(2-Amino-6-methoxy-9(H)-purinyl)-4(R)-(4(S)-(3-chlorophenyl)-2-oxo-1,3,2-dioxaphosphorinan-2(R)-yloxymethyl)-1(R)-methyl-7-oxo-3,6,8-trioxa-cis-bicyclo[3.3.0]octane], the melting point lay in the range of 125 to 130 °C.

Turning to `COC(C)(C)CCOc1nc(N)nc2c1ncn2[C@@H]1O[C@H](CO[P@@]2(=O)OCC[C@@H](c3cccc(Cl)c3)O2)[C@H]2OC(=O)O[C@]21C` [Compound 138, 2(R)-(2-Amino-6-(3-methyl-3-methoxybutyloxy)-9 (H)-purinyl)-4(R)-(4(S)-(3-chlorophenyl)-2-oxo-1,3,2-dioxaphosphorinan-2(R)-yloxymethyl)-1(R)-methyl-7-oxo-3,6,8-trioxa-cis-bicyclo[3.3.0]octane], the melting point fell in the range of 93 to 96 °C.

Molecule `CCOc1nc(N)nc2c1ncn2[C@@H]1O[C@H](CO[P@@]2(=O)OCC[C@@H](c3cc(Cl)cc(Cl)c3)O2)[C@H]2OC(=O)O[C@]21C` [Compound 127, 2(R)-(2-Amino-6-ethoxy-9(H)-purinyl)-4(R)-(4(S)-(3,5-dichlorophenyl)-2-oxo-1,3,2-dioxaphosphorinan-2(R)-yloxymethyl)-1(R)-methyl-7-oxo-3,6,8-trioxa-cis-bicyclo[3.3.0]octane] had a melting point of 101 to 103 °C.

`C[C@@]12OC(=O)O[C@@H]1[C@@H](CO[P@@]1(=O)OCC[C@@H](c3cccc(Cl)c3)O1)O[C@H]2n1cnc2c(OCC3CCCCC3)nc(N)nc21` [Compound 146, 2(R)-(2-Amino-6-cyclohexylmethoxy-9(H)-purinyl)-4(R)-(4(S)-(3-chlorophenyl)-2-oxo-1,3,2-dioxaphosphorinan-2(R)-yloxymethyl)-1(R)-methyl-7-oxo-3,6,8-trioxa-cis-bicyclo[3.3.0]octane]: the melting point lay in the range of 101 to 103 °C.

For the molecule `C[C@@]12OC(=O)O[C@@H]1[C@@H](CO[P@@]1(=O)OCC[C@@H](c3cccc(C#N)c3)O1)O[C@H]2n1cnc2c(O)nc(N)nc21` [Compound 109, 2(R)-(2-Amino-6-hydroxy-9 (H)-purinyl)-4(R)-(4(S)-(3-cyanophenyl)-2-oxo-1,3,2-dioxaphosphorinan-2(R)-yloxymethyl)-1(R)-methyl-7-oxo-3,6,8-trioxa-cis-bicyclo[3.3.0]octane], the melting point was 218 to 220 °C.

Take `CCOc1nc(N)nc2c1ncn2[C@@H]1O[C@H](CO[P@@]2(=O)OCC[C@@H](c3cc(F)cc(F)c3)O2)[C@H]2OC(=O)O[C@]21C` [Compound 126, 2(R)-(2-Amino-6-ethoxy-9(H)-purinyl)-4(R)-(4(S)-(3,5-difluorophenyl)-2-oxo-1,3,2-dioxaphosphorinan-2(R)-yloxymethyl)-1(R)-methyl-7-oxo-3,6,8-trioxa-cis-bicyclo[3.3.0]octane]: the melting point fell in the range of 96 to 98 °C.

The molecule `CC(C)Oc1nc(N)nc2c1ncn2[C@@H]1O[C@H](CO[P@@]2(=O)OCC[C@@H](c3cccc(Cl)c3)O2)[C@H]2OC(=O)O[C@]21C` [Compound 151, 2(R)-(2-Amino-6-isopropyloxy-9(H)-purinyl)-4(R)-(4(S)-(3-chlorophenyl)-2-oxo-1,3,2-dioxaphosphorinan-2(R)-yloxymethyl)-1(R)-methyl-7-oxo-3,6,8-trioxa-cis-bicyclo[3.3.0]octane] gave a melting point of 106 to 110 °C.

`CSCCCOc1nc(N)nc2c1ncn2[C@@H]1O[C@H](CO[P@@]2(=O)OCC[C@@H](c3cccc(Cl)c3)O2)[C@H]2OC(=O)O[C@]21C` [Compound 130, 2(R)-(2-Amino-6-(3-methylthiopropyloxy)-9(H)-purinyl)-4(R)-(4(S)-(3-chlorophenyl)-2-oxo-1,3,2-dioxaphosphorinan-2(R)-yloxymethyl)-1(R)-methyl-7-oxo-3,6,8-trioxa-cis-bicyclo[3.3.0]octane] had a melting point of 79 to 82 °C.

`CC(C)COc1nc(N)nc2c1ncn2[C@@H]1O[C@H](CO[P@@]2(=O)OCC[C@@H](c3cccc(Cl)c3)O2)[C@H]2OC(=O)O[C@]21C` [Compound 122, 2(R)-(2-Amino-6-(2-methylpropyloxy)-9(H)-purinyl)-4(R)-(4(S)-(3-chlorophenyl)-2-oxo-1,3,2-dioxaphosphorinan-2(R)-yloxymethyl)-1(R)-methyl-7-oxo-3,6,8-trioxa-cis-bicyclo[3.3.0]octane] yielded a melting point of 118 to 122 °C.

With `C[C@@]12OC(=O)O[C@@H]1[C@@H](CO[P@@]1(=O)OCC[C@@H](c3cccc(Cl)c3)O1)O[C@H]2n1cnc2c(OCC3CC3)nc(N)nc21` [Compound 121, 2(R)-(2-Amino-6-cyclopropylmethoxy-9(H)-purinyl)-4(R)-(4(S)-(3-chlorophenyl)-2-oxo-1,3,2-dioxaphosphorinan-2(R)-yloxymethyl)-1(R)-methyl-7-oxo-3,6,8-trioxa-cis-bicyclo[3.3.0]octane], the melting point was 128 to 132 °C.

Consider `CC(C)C(=O)O[C@@H]1[C@@H](CO[P@@]2(=O)OCC[C@@H](c3cccc(Cl)c3)O2)O[C@@H](n2cnc3c(O)nc(N)nc32)[C@]1(C)O` [Compound 117, 2(R)-(2-Amino-6-hydroxy-9(H)-purinyl)-5(R)-(4(S)-(3-chlorophenyl)-2-oxo-1,3,2-dioxaphosphorinan-2(R)-yloxymethyl)-3(R)-hydroxy-3(R)-methyl-4(R)-(2-methyl-1-oxopropoxy)-tetrahydrofuran], for which the melting point was > 200 °C.

As to `CC(C)CCOc1nc(N)nc2c1ncn2[C@@H]1O[C@H](CO[P@@]2(=O)OCC[C@@H](c3cccc(Cl)c3)O2)[C@H]2OC(=O)O[C@]21C` [Compound 134, 2(R)-(2-Amino-6-(3-methylbutyloxy)-9(H)-purinyl)-4(R)-(4(S)-(3-chlorophenyl)-2-oxo-1,3,2-dioxaphosphorinan-2(R)-yloxymethyl)-1(R)-methyl-7-oxo-3,6,8-trioxa-cis-bicyclo[3.3.0]octane], the melting point lay in the range of 76 to 78 °C.

Consider `CC(C)(C)COc1nc(N)nc2c1ncn2[C@@H]1O[C@H](CO[P@@]2(=O)OCC[C@@H](c3cccc(Cl)c3)O2)[C@H]2OC(=O)O[C@]21C` [Compound 147, 2(R)-(2-Amino-6-(2,2-dimethylpropyloxy)-9(H)-purinyl)-4(R)-(4(S)-(3-chlorophenyl)-2-oxo-1,3,2-dioxaphosphorinan-2(R)-yloxymethyl)-1(R)-methyl-7-oxo-3,6,8-trioxa-cis-bicyclo[3.3.0]octane], for which the melting point fell in the range of 88 to 91 °C.
